# pEC50: −log10 of the molar value. Structures can show the parent of a compound that is named as a salt.
# Key:
# [1] = Water uptake by thermogravimetry after exposure to relative humidity; format: physicochemical; details: 80% rh during 24 hours
# Description: Mesylate salt: 4-(2-(2-(benzo[b]thiophen-3-yl)-9-isopropyl-9H-purin-6-ylamino)ethyl)phenol free base (0.60 g; 1.40 mmoles) are dissolved in 12 ml acetone at 50° C. Methanesulfonic acid (0.137 g; 1.40 mmoles) is added drop wise. The crystallization takes place rapidly. The white suspension is allowed to cool over about 30 minutes with cooling to room temperature. The slurry is stirred for 18 hours at room temperature and filtered. The solid is washed with acetone (6 ml) in three portions and dried first for about 3 hours at 50° C./ca. 10 mbar and then for about 16 hours at 80° C./ca. 10 mbar. […] The water uptake was estimated by thermogravimetry after exposure to relative humidity (80% rh) during 24 hours. A water uptake of 0.4% was observed.
# [2] = tested on: Primary adult CD34+ human hematopoietic stem cells (HSCs); assay: % CD34+ assay: HSC expansion screen, dose response; format: cell-based; details: Homo sapiens, Hematopoietic stem cell; dose response 1 nM to 10 μM; total number and/or percent of CD34+ cells
# Description: Primary adult CD34^+ human hematopoietic stem cells (HSCs) are cultured and screened to identify compounds of the invention that facilitate HSC expansion. The cells are analyzed for the presence of the desired phenotype (CD34 expression). Compounds of the invention promote HSC expansion in a dose dependent manner.
# Culture Medium: StemSpan SFEM medium is serum-free medium (StemCell Technologies, Vancouver, BC) supplemented with the following human recombinant cytokines: thrombopoietin, interleukin-6, Flt-3 ligand, and stem cell factor (all from R&D Systems, Minneapolis, Minn.), each at a final concentration of 50 ng/mL, with vehicle (DMSO) or a compound of the invention.
# Human Cell Culture: Fresh human leukophoresed G-CSF mobilized peripheral blood from normal donors, CD34^+ cells from adult bone marrow and cryopreserved human cord blood CD34^+ cells are purchased from AllCells (Berkeley, Calif.). Human CD34^+ cells are enriched from leukophoresed G-CSF mobilized peripheral blood using magnetic cell sorting (MACS, Direct CD34 Progenitor Cell Isolation Kit, Miltenyi Biotec, Bergisch Gladbach, Germany) and cryopreserved. CD34^+ cell purity, checked by flow Cytometry, is higher than 90%. After thawing, the cell viability tested by trypan blue exclusion is higher than 70%. The thawed cells are centrifuged and resuspended with StemSpan medium before being aliquoted for immediate culture. Cells are plated at 10^4 cells/mL in a 384 well plate (Greiner Bio-One, Monroe, N.C.) with 50 μL of medium per well for 7 days. Every 7 days the cells are transferred to larger well plates and fresh medium is added to keep the cell density between 10^4 and 5×10^5 cells/mL. Cells were cultured at 37° C. in 5% CO2. For transplantation, cells were cultured in 75 cm^2 flasks before the cells were transplanted into mice. At a concentration of 1 micromolar, 4-(2-(2-(benzo[b]thiophen-3-yl)-9-isopropyl-9H-purin-6-ylamino)ethyl)phenol (compound 1, table 1; example 1), 4-(2-(2-(benzo[b]thiophen-3-yl)-9-sec-butyl-9H-purin-6-ylamino)ethyl)phenol (compound 2, table 1), and N-(2-(1H-indol-3-yl)ethyl)-2-(benzo[b]thiophen-3-yl)-9-isopropyl-9H-purin-6-amine (compound 9, table 1) each gives rise to a greater than 10-fold increase in the number of CD34^+ CD45RA^− cells derived from 1000 mPB CD34^+ HSCs after 21 days compared to vehicle. Compounds of the invention were assayed in a dose response format (1 nM to 10 μM) to determine the effective concentration that produced the desired effect in 50% of the cells (EC50).
Compound,water uptake [1],pEC50 [2]
"CC(C)n1cnc2c(NCCc3ccc(O)cc3)nc(-c3csc4ccccc34)nc21 [Besylate salt, 4-(2-(2-(benzo[b]thiophen-3-yl)-9-isopropyl-9H-purin-6-ylamino)ethyl)phenol]",about 0.05%,–
"CC(C)n1cnc2c(NCCc3ccc(O)cc3)nc(-c3csc4ccccc34)nc21 [Esylate salt, 4-(2-(2-(benzo[b]thiophen-3-yl)-9-isopropyl-9H-purin-6-ylamino)ethyl)phenol]",0.05%,–
Fc1cncc(-c2nc(NCCc3c[nH]c4ccccc34)c3ncn(C4COC4)c3n2)c1 [Example 186],–,8.15
Cc1cncc(-c2nc(NCCc3c[nH]c4ccccc34)c3ncn(C4COC4)c3n2)c1 [Example 187],–,7.47
CC(C)n1cnc2c(NCCc3c[nH]c4cc(F)ccc34)nc(-c3cncc(F)c3)nc21 [Example 188],–,8.30
Cc1ccc2c(CCNc3nc(-c4cncc(F)c4)nc4c3ncn4C(C)C)c[nH]c2c1 [Example 189],–,7.59
Cc1[nH]c2ccccc2c1CCNc1nc(-c2cncc(F)c2)nc2c1ncn2C(C)C [Example 190],–,8.30
CC(C)n1cnc2c(NCCc3c[nH]c4cccc(F)c34)nc(-c3cncc(F)c3)nc21 [Example 195],–,8.52
CC(C)n1cnc2c(NCCc3c[nH]c4c(F)cccc34)nc(-c3cncc(F)c3)nc21 [Example 196],–,8.70
Cc1cccc2[nH]cc(CCNc3nc(-c4cncc(F)c4)nc4c3ncn4C(C)C)c12 [Example 197],–,7.96
CC(C)n1ccc2c(NCCc3ccc(O)cc3)nc(-c3csc4ccccc34)nc21 [Example 198],–,5.96
CC(C)n1cnc2c(NCCc3cnc4[nH]ccc4c3)nc(-c3cccnc3)nc21 [Example 199],–,5.80
Cc1cc(CCNc2nc(-c3cncc(F)c3)nc3c2ncn3C(C)CO)ccc1O (stereo not drawn) [Example 200],–,9.00
"CC(C)n1cnc2c(NCCc3c[nH]c4ccc(OC(=O)CCCCCNC(=O)CCCC[C@@H]5SC[C@@H]6NC(=O)N[C@@H]65)cc34)nc(-c3csc4ccccc34)nc21 [Example 210, 3-(2-(2-(benzo[b]thiophen-3-yl)-9-isopropyl-9H-purin-6-ylamino)ethyl)-1H-indol-5-yl 6-(5-((3aS,4S,6aR)-2-oxohexahydro-1H-thieno[3,4-d]imidazol-4-yl)pentanamido)hexanoate]",–,5.68
"CC(C)n1cnc2c(NCCc3ccc(O)cc3)nc(-c3csc4ccccc34)nc21 [Hemi-fumarate salt, 4-(2-(2-(benzo[b]thiophen-3-yl)-9-isopropyl-9H-purin-6-ylamino)ethyl)phenol]",0.3%,–
"CC(C)n1cnc2c(NCCc3ccc(O)cc3)nc(-c3csc4ccccc34)nc21 [Hydrobromide salt, 4-(2-(2-(benzo[b]thiophen-3-yl)-9-isopropyl-9H-purin-6-ylamino)ethyl)phenol]",No water uptake,–
"CC(C)n1cnc2c(NCCc3ccc(O)cc3)nc(-c3csc4ccccc34)nc21 [Hydrochloride salt, 4-(2-(2-(benzo[b]thiophen-3-yl)-9-isopropyl-9H-purin-6-ylamino)ethyl)phenol]",0.3%,–
"CC(C)n1cnc2c(NCCc3ccc(O)cc3)nc(-c3csc4ccccc34)nc21 [Mesylate salt, 4-(2-(2-(benzo[b]thiophen-3-yl)-9-isopropyl-9H-purin-6-ylamino)ethyl)phenol]",0.4%,–
"CC(C)n1cnc2c(NCCc3ccc(O)cc3)nc(-c3csc4ccccc34)nc21 [Napadisylate salt, 4-(2-(2-(benzo[b]thiophen-3-yl)-9-isopropyl-9H-purin-6-ylamino)ethyl)phenol]",less than 0.05%,–
"CC(C)n1cnc2c(NCCc3ccc(O)cc3)nc(-c3csc4ccccc34)nc21 [Orotate salt, 4-(2-(2-(benzo[b]thiophen-3-yl)-9-isopropyl-9H-purin-6-ylamino)ethyl)phenol]",1.7%,–
"CC(C)n1cnc2c(NCCc3ccc(O)cc3)nc(-c3csc4ccccc34)nc21 [Sulfate salt, 4-(2-(2-(benzo[b]thiophen-3-yl)-9-isopropyl-9H-purin-6-ylamino)ethyl)phenol]",0.2%,–

# Source: US9580426B2, “Compounds that expand hematopoietic stem cells” (Novartis AG, priority 2008, dated 2017)
